In the CheMixHub ionic liquid set:
± gives the uncertainty stated by the source.

Test: xn = mol fraction of the nth substance listed

CCCCCCCCn1cc[n+](C)c1.F[B-](F)(F)F + CCCCCCCCn1cc[n+](C)c1.[Cl-]
101 kPa
Details	electrical conductivity [S/m]	viscosity [mPa·s]
303 K, x2 = 0	0.0817 ± 0.0066	–
303 K, x2 = 0.8	0.00551 ± 0.00045	–
303.15 K, x2 = 0	–	258 ± 78
303.15 K, x2 = 0.4	–	1093 ± 340
308 K, x2 = 0.8	0.00853 ± 0.0007	–
313 K, x2 = 0.6	0.0233 ± 0.0019	–
318 K, x2 = 0	0.172 ± 0.014	–
318 K, x2 = 0.2	0.106 ± 0.0086	–
318 K, x2 = 0.6	0.0327 ± 0.0027	–
318.15 K, x2 = 0.8	–	1486 ± 470
323 K, x2 = 0.6	0.0452 ± 0.0037	–
328 K, x2 = 0.2	0.17 ± 0.014	–
333 K, x2 = 0	0.322 ± 0.026	–
333.15 K, x2 = 0	–	61 ± 18

CCCCCCCCn1cc[n+](C)c1.O=[N+]([O-])[O-] + CCCCCCCCn1cc[n+](C)c1.[Cl-]
Details	viscosity [mPa·s]
293 K, 101 kPa, x2 = 0.3615	8500 ± 2500

CC(C)O + CCCCCC[N+](CC)(CC)CC.O=S(=O)([N-]S(=O)(=O)C(F)(F)F)C(F)(F)F
100 kPa, x1 = 1
Details	viscosity [mPa·s]
298.15 K	2.05 ± 0.21
303.15 K	1.73 ± 0.17
308.15 K	1.49 ± 0.15

[Cl-].[Li+] + CCCCCC[n+]1ccn(C)c1.N#C[S-] + CN1CCCC1=O
298.15 K, 101 kPa
Details	viscosity [mPa·s]
x2 = 0, x1 = 0.04156	2.626 ± 0.035
x2 = 0, x1 = 0.07132	3.558 ± 0.046
x2 = 0, x1 = 0.1038	4.959 ± 0.064

CC(C)O + CCCCCC[n+]1ccn(C)c1.O=S(=O)([N-]S(=O)(=O)C(F)(F)F)C(F)(F)F
100 kPa, x1 = 1
Details	viscosity [mPa·s]
293.15 K	2.42 ± 0.24
298.15 K	2.05 ± 0.21
303.15 K	1.73 ± 0.17
308.15 K	1.49 ± 0.15
313.15 K	1.34 ± 0.13

CCCCCCCCCCCCCC[P+](CCCCCC)(CCCCCC)CCCCCC.O=S(=O)([N-]S(=O)(=O)C(F)(F)F)C(F)(F)F + CCCCCC[n+]1ccn(C)c1.O=S(=O)([N-]S(=O)(=O)C(F)(F)F)C(F)(F)F
100 kPa
Details	viscosity [mPa·s]
278.15 K, x2 = 0.404	870 ± 120
283.15 K, x2 = 0.097	770 ± 100

CC(C)O + CCCCCC[n+]1ccn(C)c1.O=S(=O)([O-])C(F)(F)F
100 kPa, x1 = 1
Details	viscosity [mPa·s]
298.15 K	2.05 ± 0.21
308.15 K	1.49 ± 0.15

CC(C)O + CCCCCC[n+]1ccn(C)c1.O=[N+]([O-])[O-]
100 kPa, x2 = 0
Details	viscosity [mPa·s]
293.15 K	2.42 ± 0.12
298.15 K	2.08 ± 0.1
303.15 K	1.8 ± 0.09
308.15 K	1.56 ± 0.08
313.15 K	1.36 ± 0.07
318.15 K	1.19 ± 0.06
323.15 K	1.05 ± 0.05

CCCCC[N+](CC)(CC)CC.O=S(=O)([N-]S(=O)(=O)C(F)(F)F)C(F)(F)F + CCCCC[P+](CC)(CC)CC.O=S(=O)([N-]S(=O)(=O)C(F)(F)F)C(F)(F)F
101.3 kPa
Details	viscosity [mPa·s]
298.15 K, x1 = 0.6	123 ± 25
303.15 K, x1 = 1	126 ± 25
318.15 K, x1 = 0.2	39.5 ± 7.9
338.15 K, x1 = 0.6	22.8 ± 4.6
343.15 K, x1 = 1	23.3 ± 4.7
348.15 K, x1 = 0.8	18.3 ± 3.7
353.15 K, x1 = 0.2	13.1 ± 2.6
353.15 K, x1 = 1	17.3 ± 3.5

CCCCCCCCn1cc[n+](C)c1.O=[N+]([O-])[O-] + CCCCO
101 kPa
Details	viscosity [mPa·s]
283.15 K, x2 = 0.168	770 ± 280
293.15 K, x2 = 0.358	137 ± 19
293.15 K, x2 = 0.57	38.5 ± 1.5
293.15 K, x2 = 0.676	20.63 ± 0.9
293.15 K, x2 = 0.848	7.8 ± 0.58
298.15 K, x2 = 0.458	59.3 ± 1.9
298.15 K, x2 = 0.57	31.8 ± 1.3
298.15 K, x2 = 0.848	6.79 ± 0.56
303.15 K, x2 = 0.458	47.9 ± 1.8
303.15 K, x2 = 0.676	14.91 ± 0.74
308.15 K, x2 = 0.358	64.5 ± 2.6
308.15 K, x2 = 0.676	12.81 ± 0.68
313.15 K, x2 = 0.168	123 ± 15
313.15 K, x2 = 0.358	52.2 ± 1.2
318.15 K, x2 = 0.358	42.8 ± 1.6
323.15 K, x2 = 0.458	23.19 ± 0.96
323.15 K, x2 = 0.57	14.15 ± 0.71
323.15 K, x2 = 0.676	8.67 ± 0.59
323.15 K, x2 = 0.848	3.61 ± 0.52
328.15 K, x2 = 0.458	17.18 ± 0.8

CCCC[n+]1ccn(C)c1.O=S(=O)([O-])C(F)(F)F + CCCCO
viscosity [mPa·s], 100 kPa
Details	x1 = 0.1091	x1 = 0.2147	x1 = 0.2908	x1 = 0.4008	x1 = 0.5123	x1 = 0.5928	x1 = 0.6991	x1 = 0.8056	x1 = 0.9078	x1 = 1
298.15 K	3.69 ± 0.74	6.2 ± 1.2	8.9 ± 1.8	14.2 ± 2.9	20.6 ± 4.1	26 ± 5.2	35.4 ± 7.1	47.6 ± 9.5	63 ± 13	82 ± 17
303.15 K	3.24 ± 0.65	5.1 ± 1	6.9 ± 1.4	11.5 ± 2.3	17.5 ± 3.5	22.6 ± 4.5	30.2 ± 6	38.8 ± 7.8	51 ± 10	67 ± 13
308.15 K	2.87 ± 0.57	4.45 ± 0.89	6 ± 1.2	11 ± 2.2	15.3 ± 3.1	19.3 ± 3.9	25.4 ± 5.1	32 ± 6.4	40.6 ± 8.1	53 ± 11
313.15 K	2.55 ± 0.51	3.93 ± 0.79	5.3 ± 1.1	9.5 ± 1.9	13.6 ± 2.7	16.9 ± 3.4	21.6 ± 4.3	27.2 ± 5.4	34.7 ± 6.9	43.7 ± 8.8
318.15 K	2.27 ± 0.45	3.48 ± 0.7	4.68 ± 0.94	7.9 ± 1.6	11.2 ± 2.2	13.8 ± 2.8	17.8 ± 3.6	22.6 ± 4.5	28.5 ± 5.7	36.3 ± 7.3
323.15 K	2.04 ± 0.41	3.11 ± 0.62	4.17 ± 0.84	7.2 ± 1.4	10.1 ± 2	12.4 ± 2.5	15.8 ± 3.2	19.3 ± 3.9	24.4 ± 4.9	30.6 ± 6.1

CCCCCCCCn1cc[n+](C)c1.F[B-](F)(F)F + CCCCOC(C)=O
298.15 K, 101 kPa
Details	viscosity [mPa·s]
x2 = 0.114	187 ± 11
x2 = 0.4512	34.1 ± 0.44
x2 = 0.9065	1.76 ± 0.03
